Some test systems named below: 786-0 renal; ACHN renal; CCRF-CEM leukemia; HCT-15 colon; HOP-92 NSCLC; KM12 colon; M14 melanoma; NCI-H23 lung; NCI-H522 lung; OVCAR-3 ovarian; OVCAR-5 ovarian; OVCAR-8 ovarian; SF-268 CNS; SF-539 CNS; SK-MEL-28 melanoma; SK-MEL-5 melanoma; SK-OV-3 ovarian; SNB-19 CNS; T-47D breast.
Holding throughout (experiment): NCI anticancer screen, dose series, 48 h

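Five concentrations, 48 hours, 96-well plates. TGI denotes the concentration required for complete inhibition of growth.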

Consider `O=C(COC(c1ccc(F)cc1)c1ccc(F)cc1)N1CCN(CCCc2ccccc2)CC1`, for which the TGI in the experiment on 786-0 renal is 14.1 µM; in the experiment with ACHN renal, 13.7 µM; in the experiment on CCRF-CEM leukemia, > 100 µM; in the experiment with HCT-15 colon, 11.4 µM; with HOP-92 NSCLC, 8.02 µM; in the experiment with KM12 colon it was 15.9 µM. The TGI was 16.2 µM with M14 melanoma; 7.91 µM with NCI-H23 lung; 18.6 µM in the experiment with NCI-H522 lung; 13.7 µM with OVCAR-3 ovarian; 14.7 µM in the experiment with OVCAR-5 ovarian; 14.6 µM in the experiment on OVCAR-8 ovarian. Also, the TGI was 16.4 µM in the experiment on SF-268 CNS; 17.3 µM in the experiment on SF-539 CNS; > 100 µM in the experiment with SK-MEL-28 melanoma; 6.9 µM with SK-MEL-5 melanoma; 21.5 µM in the experiment on SK-OV-3 ovarian; 15.2 µM with SNB-19 CNS. The TGI in the experiment with T-47D breast was 9.35 µM.

`COc1ccc(Cc2nc3cc(Cl)ccc3o2)cc1`: the TGI in the experiment on 786-0 renal, with ACHN renal, in the experiment with CCRF-CEM leukemia, in the experiment with HCT-15 colon, in the experiment with HOP-92 NSCLC and in the experiment with KM12 colon was > 100 µM in each case. The TGI is > 100 µM in the experiment with M14 melanoma; > 100 µM with NCI-H23 lung; > 100 µM with NCI-H522 lung; 94.1 µM in the experiment with OVCAR-3 ovarian; > 100 µM in the experiment with OVCAR-5 ovarian; > 100 µM in the experiment with OVCAR-8 ovarian. The TGI with SF-268 CNS was > 100 µM; with SF-539 CNS, > 100 µM; in the experiment on SK-MEL-28 melanoma, > 100 µM; in the experiment on SK-MEL-5 melanoma, 31.1 µM; in the experiment with SK-OV-3 ovarian it was > 100 µM; in the experiment on SNB-19 CNS it was > 100 µM. In the experiment on T-47D breast, the TGI amounted to 91.1 µM.

Take `COc1ccc2cc(-c3ccc(OC)c(OC)c3)c(=O)oc2c1`: the TGI in the experiment on 786-0 renal, with ACHN renal, in the experiment with CCRF-CEM leukemia, with HCT-15 colon, in the experiment with HOP-92 NSCLC and with KM12 colon was > 100 µM each time. The TGI in the experiment on M14 melanoma, in the experiment on NCI-H23 lung, with NCI-H522 lung, with OVCAR-3 ovarian, with OVCAR-5 ovarian and in the experiment with OVCAR-8 ovarian was > 100 µM in each case. Further, the TGI in the experiment on SF-268 CNS, in the experiment with SF-539 CNS, in the experiment on SK-MEL-28 melanoma, in the experiment with SK-MEL-5 melanoma, in the experiment on SK-OV-3 ovarian and with SNB-19 CNS was > 100 µM throughout. The TGI in the experiment on T-47D breast was > 100 µM.

With `CCN(CC)C(=O)C1=C(C)NC(C)=C(C(=O)N(CC)CC)C1`, the TGI in the experiment on 786-0 renal, in the experiment with ACHN renal, in the experiment on CCRF-CEM leukemia, with HCT-15 colon, with HOP-92 NSCLC and with KM12 colon was > 100 µM in each case. For the same compound, the TGI in the experiment on M14 melanoma, in the experiment on NCI-H23 lung, in the experiment on NCI-H522 lung, in the experiment with OVCAR-3 ovarian, in the experiment on OVCAR-5 ovarian and in the experiment with SF-268 CNS was > 100 µM in each case. For the same compound, the TGI in the experiment with SF-539 CNS, with SK-MEL-28 melanoma, with SK-MEL-5 melanoma, in the experiment with SK-OV-3 ovarian, in the experiment on SNB-19 CNS and with T-47D breast was > 100 µM throughout.

Turning to `Cn1c2c(c3c(=O)[nH]ncc31)CCc1ccccc1-2`, the TGI in the experiment with 786-0 renal is 73.4 µM; with ACHN renal, 72.4 µM; in the experiment on CCRF-CEM leukemia, 60.7 µM; with HCT-15 colon it was 67.3 µM; in the experiment with HOP-92 NSCLC, > 100 µM; in the experiment on KM12 colon it was 54.9 µM. For the same compound, the TGI in the experiment on M14 melanoma was 41.7 µM; in the experiment with NCI-H23 lung, 71.4 µM; in the experiment with NCI-H522 lung it was > 100 µM; in the experiment on OVCAR-3 ovarian, 72.2 µM; in the experiment on OVCAR-5 ovarian, > 100 µM; with OVCAR-8 ovarian it was > 100 µM. Moreover, the TGI was > 100 µM in the experiment on SF-268 CNS; > 100 µM in the experiment on SF-539 CNS; 70.8 µM with SK-MEL-28 melanoma; 35.1 µM in the experiment on SK-MEL-5 melanoma; > 100 µM in the experiment with SK-OV-3 ovarian; > 100 µM in the experiment with SNB-19 CNS. Further, the TGI in the experiment on T-47D breast was > 100 µM.

For `NC(=O)ON=C1CCN(Cc2ccccc2)CC1`, the TGI with 786-0 renal, in the experiment with ACHN renal, in the experiment on CCRF-CEM leukemia, in the experiment on HCT-15 colon, in the experiment with HOP-92 NSCLC and in the experiment on KM12 colon was > 100 µM each time. Besides, the TGI with M14 melanoma, in the experiment on NCI-H23 lung, in the experiment on NCI-H522 lung, in the experiment on OVCAR-3 ovarian, in the experiment on OVCAR-5 ovarian and with OVCAR-8 ovarian was > 100 µM throughout. The TGI in the experiment on SF-268 CNS, in the experiment on SF-539 CNS, in the experiment on SK-MEL-28 melanoma, in the experiment on SK-MEL-5 melanoma, with SK-OV-3 ovarian and in the experiment on SNB-19 CNS was > 100 µM each time. In the experiment on T-47D breast, the TGI was > 100 µM.

For the compound `NC(N)=NS(=O)(=O)c1ccc(Nc2c3ccccc3nc3ccc(C(=O)Nc4ccc(S(N)(=O)=O)cc4)cc23)cc1`, the TGI in the experiment with 786-0 renal, in the experiment on ACHN renal, with CCRF-CEM leukemia, with HCT-15 colon, with HOP-92 NSCLC and in the experiment on KM12 colon was > 100 µM throughout. For the same compound, the TGI in the experiment on M14 melanoma, in the experiment with NCI-H23 lung, in the experiment with NCI-H522 lung, with OVCAR-3 ovarian, with OVCAR-5 ovarian and with OVCAR-8 ovarian was > 100 µM in each case. For the same compound, the TGI with SF-268 CNS, in the experiment on SF-539 CNS, in the experiment on SK-MEL-28 melanoma, with SK-MEL-5 melanoma, in the experiment with SK-OV-3 ovarian and in the experiment with SNB-19 CNS was > 100 µM each time. Also, the TGI with T-47D breast is > 100 µM.

In the case of `CCOC(=O)C(Cc1ccc(OC(=O)c2ccc(OC)cc2OC)cc1)NC(=O)C(F)(F)F` (stereo not given), the TGI in the experiment on 786-0 renal was 93.6 µM; with ACHN renal, 30.9 µM; with CCRF-CEM leukemia, 83.8 µM; in the experiment on HCT-15 colon, 43.3 µM; in the experiment on HOP-92 NSCLC it was 55.1 µM; in the experiment with KM12 colon, 72.8 µM. For the same compound, the TGI with M14 melanoma was 33.8 µM; with NCI-H23 lung it was 45.1 µM; in the experiment with NCI-H522 lung, 40.9 µM; in the experiment with OVCAR-3 ovarian it was 36.9 µM; in the experiment on OVCAR-5 ovarian, > 100 µM; in the experiment with OVCAR-8 ovarian it was 51 µM. The TGI was > 100 µM in the experiment with SF-268 CNS; 54.4 µM in the experiment with SF-539 CNS; > 100 µM with SK-MEL-5 melanoma; > 100 µM with SK-OV-3 ovarian; > 100 µM with SNB-19 CNS; 61.6 µM with T-47D breast.

These data come from PubChem BioAssay (NCI).
